Source: patent US8673905B2, “Imidazo pyrazines” (Hoffmann-La Roche Inc., priority 2011, dated 2014)
Where a name gives a salt, the structure may show the parent alone.

Columns and labels:
MV4-11 cells = assay: Cell Glo Viability Assay (Luminescence), MV4-11; assay type: cell-based; conditions: Homo sapiens, 120 h; MV4-11 cells (mutated FLT3), 5 days, CellTiter-Glo; read-out: Cellular EC50 (μM) MV4-11
Procedure: (§1) Molm13 cells, a human acute monocytic leukemia cell line, and MV4-11 cells, a human leukemia cell line known to express mutated FLT3 cells (both from ATCC) were seeded separately at 2000 cells per well in 90 μL of RPMI1640 medium supplemented with 10% FBS in 96-well black-walled plates (BD Falcon). Test compounds were diluted at ten times of assay concentrations, 10 μL was added into duplicate wells. Plates were incubated at 37° C. with 5% CO2 for 5 days. Cell viability was assayed by CellTiter-Glo® Luminescent Cell Viability Assay (Promega) following manufacturer's protocol.
(§2) The results of this assay, given as EC50 values, indicate the concentration of test compound that inhibits tumor cell proliferation by 50%.

Molm13 cells = assay: Cell Glo Viability Assay (Luminescence), Molm13; assay type: cell-based; conditions: Homo sapiens, MOLM-13, 120 h, 5 days, CellTiter-Glo, read-out: Cellular EC50 (μM) Molm13
Procedure: as §1, §2

human recombinant FLT3 = human recombinant FLT3 (Homo sapiens (Human), UniProt P36888); assay: FLT3 Kinase Assay (Caliper mobility shift); assay type: biochemical; conditions: for IC50: 100 μM ATP, 28° C., 90 minutes, read-out: Enzyme IC50 (μM) FLT3; for inhibition at 10 µM: 10 μM test compound, reported where IC50 was not determined, read-out: % inhibition of FLT3 at 10 μM test compound concentration
Procedure: After incubation, the reaction product was analyzed by electrophoretic mobility shift run on Caliper by manufacturer's protocol.

human recombinant FLT3, sequence (P36888 27-993): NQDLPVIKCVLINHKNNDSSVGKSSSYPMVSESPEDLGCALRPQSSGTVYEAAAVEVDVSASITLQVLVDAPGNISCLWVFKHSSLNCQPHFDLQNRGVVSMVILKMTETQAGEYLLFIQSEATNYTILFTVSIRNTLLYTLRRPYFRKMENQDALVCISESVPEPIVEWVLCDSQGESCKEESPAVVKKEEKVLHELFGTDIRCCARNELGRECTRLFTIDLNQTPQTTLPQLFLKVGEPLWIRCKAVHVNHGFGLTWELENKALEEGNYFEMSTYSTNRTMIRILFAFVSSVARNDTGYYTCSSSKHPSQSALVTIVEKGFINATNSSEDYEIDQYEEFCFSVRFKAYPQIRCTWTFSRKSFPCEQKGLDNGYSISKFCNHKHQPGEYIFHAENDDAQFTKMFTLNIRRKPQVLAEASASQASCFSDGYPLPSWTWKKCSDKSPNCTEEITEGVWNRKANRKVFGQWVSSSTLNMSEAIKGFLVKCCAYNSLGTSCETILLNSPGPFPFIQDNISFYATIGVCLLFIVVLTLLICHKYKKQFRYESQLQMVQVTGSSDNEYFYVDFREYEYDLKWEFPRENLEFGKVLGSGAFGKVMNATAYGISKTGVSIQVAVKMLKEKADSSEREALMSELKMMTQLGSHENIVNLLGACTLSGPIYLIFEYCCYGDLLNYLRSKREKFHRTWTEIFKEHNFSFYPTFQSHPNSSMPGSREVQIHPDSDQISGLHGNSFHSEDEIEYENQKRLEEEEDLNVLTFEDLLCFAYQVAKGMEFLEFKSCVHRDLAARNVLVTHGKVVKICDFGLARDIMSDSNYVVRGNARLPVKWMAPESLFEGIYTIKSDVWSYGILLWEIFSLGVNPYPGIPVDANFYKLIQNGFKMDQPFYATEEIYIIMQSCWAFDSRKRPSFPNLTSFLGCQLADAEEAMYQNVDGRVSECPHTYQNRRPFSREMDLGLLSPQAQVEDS

| SMILES | IC50 (human recombinant FLT3) | inhibition at 10 µM (human recombinant FLT3) | EC50 (MV4-11 cells) | EC50 (Molm13 cells) |
| --- | --- | --- | --- | --- |
| N[C@H]1CC[C@H](Nc2nccn3c(-c4ccnc(NCc5ccccc5Cl)n4)cnc23)CC1 [Example 83, N-{3-[2-(2-Chloro-benzylamino)-pyrimidin-4-yl]-imidazo[1,2-a]pyrazin-8-yl}-cyclohexane-1,4-diamine; hydrochloride] | < 0.005 µM |  | 0.016 µM | 0.021 µM |
| N[C@H]1CC[C@H](Nc2nccn3c(-c4cccc(NCc5cccs5)n4)cnc23)CC1 [Example 87, N-(3-{6-[(Thiophen-2-ylmethyl)-amino]-pyridin-2-yl}-imidazo[1,2-a]pyrazin-8-yl)-cyclohexane-1,4-diamine; hydrochloride] |  |  | 0.07 µM | 0.074 µM |
| N[C@H]1CC[C@H](Nc2nccn3c(-c4ccnc(NCc5ccccc5)n4)cnc23)CC1 [Example 68, N-[3-(2-Benzylamino-pyrimidin-4-yl)-imidazo[1,2-a]pyrazin-8-yl]-cyclohexane-1,4-diamine; hydrochloride] | < 0.005 µM |  | 0.052 µM | 0.061 µM |
| CNc1nccn2c(-c3ccnc(Nc4ccccc4)n3)cnc12 [Example 20, Methyl-[3-(2-phenylamino-pyrimidin-4-yl)-imidazo[1,2-a]pyrazin-8-yl]-amine] | < 0.005 µM |  | 0.041 µM | 0.052 µM |
| NCCC(Nc1nccc(-c2cnc3c(N[C@H]4CC[C@H](N)CC4)nccn23)n1)c1ccccc1 (stereo partly drawn) [Example 76, N-{3-[2-(3-Amino-1-phenyl-propylamino)-pyrimidin-4-yl]-imidazo[1,2-a]pyrazin-8-yl}-cyclohexane-1,4-diamine; hydrochloride] | < 0.005 µM |  | 0.232 µM | 0.301 µM |
| CN1CCN(c2nccn3c(-c4ccnc(NCc5cccs5)n4)cnc23)CC1 [Example 64, {4-[8-(4-Methyl-piperazin-1-yl)-imidazo[1,2-a]pyrazin-3-yl]-pyrimidin-2-yl}-thiophen-2-ylmethyl-amine; hydrochloride] |  | 33.5% |  |  |
| N[C@H]1CC[C@H](Nc2nccn3c(-c4cccc(NCc5ccccc5)n4)cnc23)CC1 [Example 73, N-[3-(6-Benzylamino-pyridin-2-yl)-imidazo[1,2-a]pyrazin-8-yl]-cyclohexane-1,4-diamine; hydrochloride] |  |  | 0.04 µM | 0.077 µM |
| c1ccc(CNc2nccc(-c3cnc4c(NCCN5CCOCC5)nccn34)n2)cc1 [Example 72, [3-(2-Benzylamino-pyrimidin-4-yl)-imidazo[1,2-a]pyrazin-8-yl]-(2-morpholin-4-yl-ethyl)-amine; hydrochloride] |  |  | 0.124 µM | 0.171 µM |
| CN1CCN(c2nccn3c(-c4ccnc(NCc5ccc(Cl)cc5)n4)cnc23)CC1 [Example 59, (4-Chloro-benzyl)-{4-[8-(4-methyl-piperazin-1-yl)-imidazo[1,2-a]pyrazin-3-yl]-pyrimidin-2-yl}-amine; hydrochloride] |  | 29.2% |  |  |
| CC(C)Nc1nccc(-c2cnc3c(NCCO)nccn23)n1 [Example 30, 2-[3-(2-Isopropylamino-pyrimidin-4-yl)-imidazo[1,2-a]pyrazin-8-ylamino]-ethanol] |  |  | 0.745 µM | 2.19 µM |
| N[C@H]1CC[C@H](Nc2nccn3c(-c4cccc(NCc5ccc(Cl)cc5)n4)cnc23)CC1 [Example 86, N-{3-[6-(4-Chloro-benzylamino)-pyridin-2-yl]-imidazo[1,2-a]pyrazin-8-yl}-cyclohexane-1,4-diamine; hydrochloride] |  |  | 0.385 µM | 0.353 µM |
| CN1CCN(c2nccn3c(-c4ccnc(NC(CN)c5ccsc5)n4)cnc23)CC1 (stereo not drawn) [Example 75, N1-{4-[8-(4-Methyl-piperazin-1-yl)-imidazo[1,2-a]pyrazin-3-yl]-pyrimidin-2-yl}-1-thiophen-3-yl-ethane-1,2-diamine; hydrochloride] |  |  | 0.878 µM | 1.69 µM |
| CNc1nccc(-c2cnc3c(NC4CCNCC4)nccn23)n1 [Example 26, [3-(2-Methylamino-pyrimidin-4-yl)-imidazo[1,2-a]pyrazin-8-yl]-piperidin-4-yl-amine] |  |  | 1.12 µM | 2.56 µM |
| Clc1ccccc1CNc1nccc(-c2cnc3c(NCCN4CCOCC4)nccn23)n1 [Example 88, {3-[2-(2-Chloro-benzylamino)-pyrimidin-4-yl]-imidazo[1,2-a]pyrazin-8-yl}-(2-morpholin-4-yl-ethyl)-amine; hydrochloride] |  |  | 0.055 µM | 0.037 µM |
| N[C@H]1CC[C@H](Nc2nccn3c(-c4cccc(NCc5cccc(Cl)c5)n4)cnc23)CC1 [Example 82, N-{3-[6-(3-Chloro-benzylamino)-pyridin-2-yl]-imidazo[1,2-a]pyrazin-8-yl}-cyclohexane-1,4-diamine; hydrochloride] |  |  | 0.049 µM | 0.119 µM |
| NCCC(Nc1cccc(-c2cnc3c(N[C@H]4CC[C@H](N)CC4)nccn23)n1)c1ccccc1 (stereo partly drawn) [Example 81, N-{3-[6-(3-Amino-1-phenyl-propylamino)-pyridin-2-yl]-imidazo[1,2-a]pyrazin-8-yl}-cyclohexane-1,4-diamine; hydrochloride] |  |  | 0.288 µM | 0.255 µM |
| CN1CCN(c2nccn3c(-c4ccnc(NC(CN)c5cccc(Cl)c5)n4)cnc23)CC1 (stereo not drawn) [Example 79, 1-(3-Chloro-phenyl)-N1-{4-[8-(4-methyl-piperazin-1-yl)-imidazo[1,2-a]pyrazin-3-yl]-pyrimidin-2-yl}-ethane-1,2-diamine; hydrochloride] |  |  | 1.01 µM | 1.97 µM |
| Clc1cccc(CNc2nccc(-c3cnc4c(NCCN5CCOCC5)nccn34)n2)c1 [Example 89, {3-[2-(3-Chloro-benzylamino)-pyrimidin-4-yl]-imidazo[1,2-a]pyrazin-8-yl}-(2-morpholin-4-yl-ethyl)-amine; hydrochloride] |  |  | 0.06 µM | 0.075 µM |

More lines, main results first:

| IC50 (human recombinant FLT3) | inhibition at 10 µM (human recombinant FLT3) | SMILES | EC50 (MV4-11 cells) | EC50 (Molm13 cells) |
| --- | --- | --- | --- | --- |
| < 0.005 µM |  | N[C@H]1CC[C@H](Nc2nccn3c(-c4cccc(NCc5ccsc5)n4)cnc23)CC1 [Example 84, N-(3-{6-[(Thiophen-3-ylmethyl)-amino]-pyridin-2-yl}-imidazo[1,2-a]pyrazin-8-yl)-cyclohexane-1,4-diamine; hydrochloride] | 0.068 µM | 0.056 µM |
| < 0.005 µM |  | NCC(Nc1cccc(-c2cnc3c(N[C@H]4CC[C@H](N)CC4)nccn23)n1)c1ccccc1 (stereo partly drawn) [Example 80, N-{3-[6-(2-Amino-1-phenyl-ethylamino)-pyridin-2-yl]-imidazo[1,2-a]pyrazin-8-yl}-cyclohexane-1,4-diamine; hydrochloride] | < 0.014 µM | 0.041 µM |
| < 0.005 µM |  | NCC(Nc1cccc(-c2cnc3c(NCCN4CCOCC4)nccn23)n1)c1cccc(Cl)c1 (stereo not drawn) [Example 91, 1-(3-Chloro-phenyl)-N-1-{6-[8-(2-morpholin-4-yl-ethylamino)-imidazo[1,2-a]pyrazin-3-yl]-pyridin-2-yl}-ethane-1,2-diamine hydrochloride] | < 0.014 µM | < 0.014 µM |
| < 0.005 µM |  | NCCC(Nc1cccc(-c2cnc3c(NCCN4CCOCC4)nccn23)n1)c1cccc(Cl)c1 (stereo not drawn) [Example 90, 1-(3-Chloro-phenyl)-N-1-{6-[8-(2-morpholin-4-yl-ethylamino)-imidazo[1,2-a]pyrazin-3-yl]-pyridin-2-yl}-propane-1,3-diamine hydrochloride] | < 0.014 µM | 0.034 µM |
|  | 13.2% | CN1CCN(c2nccn3c(-c4cccc(NCc5ccc(Cl)cc5)n4)cnc23)CC1 [Example 71, (4-Chloro-benzyl)-{6-[8-(4-methyl-piperazin-1-yl)-imidazo[1,2-a]pyrazin-3-yl]-pyridin-2-yl}-amine; hydrochloride] |  |  |
| < 0.005 µM |  | N[C@H]1CC[C@H](Nc2nccn3c(-c4ccnc(NCc5cccc(Cl)c5)n4)cnc23)CC1 [Example 67, N-{3-[2-(3-Chloro-benzylamino)-pyrimidin-4-yl]-imidazo[1,2-a]pyrazin-8-yl}-cyclohexane-1,4-diamine; hydrochloride] | 0.017 µM | 0.049 µM |
| < 0.005 µM |  | NCC(Nc1nccc(-c2cnc3c(N[C@H]4CC[C@H](N)CC4)nccn23)n1)c1ccccc1 (stereo partly drawn) [Example 77, N-{3-[2-(2-Amino-1-phenyl-ethylamino)-pyrimidin-4-yl]-imidazo[1,2-a]pyrazin-8-yl}-cyclohexane-1,4-diamine; hydrochloride] | 0.015 µM | 0.08 µM |
| < 0.005 µM |  | N[C@H]1CC[C@H](Nc2nccn3c(-c4cccc(NCc5ccccc5Cl)n4)cnc23)CC1 [Example 85, N-{3-[6-(2-Chloro-benzylamino)-pyridin-2-yl]-imidazo[1,2-a]pyrazin-8-yl}-cyclohexane-1,4-diamine; hydrochloride] | < 0.014 µM | < 0.014 µM |
